Here are results for one compound from US20040152659A1, “Method for the treatment of parkinson's disease comprising administering an A1A2a receptor dual antagonist” (Fujisawa Pharmaceutical Co. Ltd., priority 1999, published 2004).

The test system of assay [1] is Male Wistar rats. The assay is described as follows: Test 3 Impaired-memory ameliorating action (scopolamine-impaired retention trial). It is filed as in vivo. The following applies: scopolamine 1 mg/kg i.p. + test compound 1 mg/kg i.p. immediately after acquisition trial, scopolamine + control 80.2 ± 34.9, intact 300 ± 0. Here is the method: Test 3 Impaired-Memory Ameliorating Action
Male Wistar rats were serially subjected to an acclimation trial, an acquisition trial 1 hour after the acclimation trial, and a retention trial 24 hours after the acquisition trial. Scopolamine 1 mg/kg was intraperitoneally administered 30 minutes before the acquisition trial. The test compound was intraperitoneally administered immediately after the acquisition trial.

Assay [2] concerns male SD rats. The assay is described as follows: Test 2 Anxiolytic action (social interaction test). It counts as in vivo. Conditions: 0.32 mg/kg oral 1 h before test, 15 min observation, control 51.3 ± 6.0. How it is done: Two male SD rats acclimated for 1 week and handled once were used in sets. One hour before beginning of the test, both rats in each set were orally dosed with the same amount of the test compound or the vehicle. Immediately thereafter, both rats were placed in a new environment where territories were to be established as yet and their behaviors were monitored and recorded over 15 minutes. After the test, the records were analyzed and evaluated in terms of the total duration of social interaction (social interaction time) (observation items: sniffing, following, grooming, kicking, boxing, biting, wrestling, crawling under or over the partner).

Assay [3] concerns the target T1, human recombinant A2a receptors (Homo sapiens, UniProt P29274).
T1 construct: expressed in transfected cells; host or cells: CHO cells
The assay is described as follows: Estimation of Adenosine A2a-receptor antagonizing activity ([3H]-CGS21680 binding, CHO cell membrane fractions). The following applies: at a concentration of 1.0×10^−6 M; [3H]-CGS21680 15 nM; read-out: inhibition rate for Adenosine A2a-receptor. From the text:
(§1) The existence and intensity of “adenosine A1-receptor antagonizing activity” and/or “adenosine A2a-receptor antagonizing activity” can be ascertained and assessed typically by the following test method. The intensity of adenosine A1-receptor antagonizing action and of adenosine A2a-receptor antagonizing action as referred to in the appended claims also means the value found by the method described below.
(§2) “Estimation of Adenosine A1 and A2a-receptor antagonizing activity”
(§3) Membrane fractions prepared from the CHO cells which transfected stably with human recombinant A1 or A2a receptors were incubated for 1 hr at 25° C. with test compounds, ADA, 50 mM Tris buffer and [3H]-DPCPX (final 4 nM) or [3H]-CGS21680 (final 15 nM), respectively. Reaction mixtures were filtrated with 96-well harvestor to separate free ligands from bound fraction using GF/C filter. Radioactivity of the dried filter was counted, and specific binding of each labelled rigands was calculated.

For assay [4], the system named is Mice. The assay is described as follows: Test 1 Anticataleptic action (haloperidol-induced catalepsy). It counts as in vivo. The following applies: 1 mg/kg oral, 30 min before haloperidol 0.32 mg/kg i.p., observed 30 min later, control 100. Here is the method:
Test 1 Anticataleptic Action
Mice were orally dosed with the test compound as a suspention in 0.5% of methyl cellulose and, 30 minutes later, intraperitoneally dosed with 0.32 mg/kg of haloperidol.

Assay [5] deals with T2, human recombinant A1 receptors (Homo sapiens, UniProt P30542).
T2 construct: expressed in transfected cells; host or cells: CHO cells
T2 sequence (P30542 1-326): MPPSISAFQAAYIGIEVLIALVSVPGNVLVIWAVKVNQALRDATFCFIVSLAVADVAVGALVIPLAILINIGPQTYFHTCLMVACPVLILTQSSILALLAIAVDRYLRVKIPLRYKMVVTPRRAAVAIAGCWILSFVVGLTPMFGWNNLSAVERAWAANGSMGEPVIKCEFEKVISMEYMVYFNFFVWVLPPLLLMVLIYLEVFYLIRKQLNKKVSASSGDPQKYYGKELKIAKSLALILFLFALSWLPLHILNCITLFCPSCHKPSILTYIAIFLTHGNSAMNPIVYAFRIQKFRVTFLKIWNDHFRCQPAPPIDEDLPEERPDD
The assay is described as follows: Estimation of Adenosine A1-receptor antagonizing activity ([3H]-DPCPX binding, CHO cell membrane fractions).
From the text: as §1, §2, §3

T1 sequence (P29274 whole entry): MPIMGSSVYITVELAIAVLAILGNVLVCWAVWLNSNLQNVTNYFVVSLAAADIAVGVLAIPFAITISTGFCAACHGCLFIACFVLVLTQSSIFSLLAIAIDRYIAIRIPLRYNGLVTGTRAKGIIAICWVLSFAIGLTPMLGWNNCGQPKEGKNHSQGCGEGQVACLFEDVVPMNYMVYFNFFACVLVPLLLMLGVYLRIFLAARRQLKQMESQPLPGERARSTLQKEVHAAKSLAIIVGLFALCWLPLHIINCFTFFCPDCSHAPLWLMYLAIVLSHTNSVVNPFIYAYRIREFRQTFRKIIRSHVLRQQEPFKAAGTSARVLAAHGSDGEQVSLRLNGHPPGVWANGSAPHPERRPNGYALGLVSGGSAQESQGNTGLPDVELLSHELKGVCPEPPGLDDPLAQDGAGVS

For orientation: inhibition means the relative decrease from the control value, in per cent. In the case of `O=c1ccc(-c2c(-c3ccccc3)nn3ccccc23)nn1Cc1nccs1` [(A), 3-[2-(Thiazol-2-ylmethyl)-3-oxo-2,3-dihydropyridazin-6-yl]-2-phenylpyrazolo[1,5-a]pyridine], the “Reaction latency in retention trial” value in assay [1] amounted to 215.6 ± 35.0 s. For the same compound, the Social interaction time in assay [2] was 90.5 ± 12.5 s. In addition, the inhibition at 1 µM in assay [3] was at least 80%; in assay [5] (at a concentration of 1.0×10^−6 M, [3H]-DPCPX 4 nM, read-out: inhibition rate for Adenosine A1-receptor), at least 80%. Moreover, the Incidence of catalepsy in assay [4] came out at 20%. For the same compound, the “affinity for the adenosine A1-receptor relative to affinity for the adenosine A2a receptor” value in assay [5] (A1 affinity as a multiple of A2a affinity) is given as 36 times.
